Source: PubChem BioAssay (NCI)
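Step 1: Grow cells in 96-well plates. Step 2: Expose to compound for 48 hours at 5 concentrations. Step 3: Interpolate endpoints linearly; if unreached, use highest concentration. The concentration for full growth arrest is given as TGI.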

Key:
Assay in all cases: NCI tumour cell line growth inhibition, 48 h
CAKI-1 renal = system: CAKI-1 renal
COLO 205 colon = system: COLO 205 colon
HCC-2998 colon = system: HCC-2998 colon
HCT-15 colon = system: HCT-15 colon
HOP-62 NSCLC = system: HOP-62 NSCLC
IGROV1 ovarian = system: IGROV1 ovarian
LOX IMVI melanoma = system: LOX IMVI melanoma
NCI-H460 lung = system: NCI-H460 lung
OVCAR-5 ovarian = system: OVCAR-5 ovarian
RPMI-8226 leukemia = system: RPMI-8226 leukemia
RXF 393 renal = system: RXF 393 renal
SF-268 CNS = system: SF-268 CNS
SK-MEL-2 melanoma = system: SK-MEL-2 melanoma
SNB-19 CNS = system: SNB-19 CNS
U251 CNS = system: U251 CNS
UACC-257 melanoma = system: UACC-257 melanoma
UACC-62 melanoma = system: UACC-62 melanoma
MDA-N = system: MDA-N

Row | SMILES | TGI (CAKI-1 renal) [µM] | TGI (COLO 205 colon) [µM] | TGI (HCC-2998 colon) [µM] | TGI (HCT-15 colon) [µM] | TGI (HOP-62 NSCLC) [µM] | TGI (IGROV1 ovarian) [µM] | TGI (LOX IMVI melanoma) [µM] | TGI (NCI-H460 lung) [µM] | TGI (OVCAR-5 ovarian) [µM] | TGI (RPMI-8226 leukemia) [µM] | TGI (RXF 393 renal) [µM] | TGI (SF-268 CNS) [µM] | TGI (SK-MEL-2 melanoma) [µM] | TGI (SNB-19 CNS) [µM] | TGI (U251 CNS) [µM] | TGI (UACC-257 melanoma) [µM] | TGI (UACC-62 melanoma) [µM] | TGI (MDA-N) [µM]
1 | O=C(O)c1ccc(C2COc3ccc(Cl)cc3C2)cc1 (centres undefined) | > 100 | > 100 | > 100 | > 100 | > 100 | > 100 | > 100 | > 100 | > 100 | > 100 | > 100 | > 100 | > 100 | > 100 | > 100 | > 100 | > 100 | –
2 | COc1cc(C2SCC(=O)N2c2cccc(Cl)c2)cc(OC)c1OC (centres undefined) | > 100 | > 100 | > 100 | > 100 | – | > 100 | > 100 | > 100 | > 100 | > 100 | – | > 100 | > 100 | > 100 | > 100 | > 100 | 54.3 | 43
3 | COc1cc2c(c(OC)c1)/C(=C/Sc1ccccc1)C(=O)N(C(C)(C)C)C2 | > 100 | 50.6 | > 100 | 91.9 | 83.8 | 82.8 | 37.1 | – | > 100 | 94.5 | – | 39 | 42.5 | – | 98.6 | 85.3 | 90 | 73
4 | NC(N)=NCCCC(NC(=O)c1cccc2c(=O)c3ccccc3[nH]c12)C(=O)O (centres undefined) | – | > 100 | – | > 100 | > 100 | > 100 | > 100 | – | > 100 | > 100 | – | > 100 | > 100 | > 100 | > 100 | – | > 100 | > 100
5 | C/C=C1\CN2CCc3c([nH]c4ccccc34)C2CC1C(=O)OC (centres undefined) | > 322 | > 322 | > 322 | > 322 | > 322 | > 322 | > 322 | > 322 | > 322 | > 322 | > 322 | > 322 | > 322 | > 322 | > 322 | > 322 | > 322 | –
6 | O=C1C(Cl)=C(Nc2ccc(S(=O)(=O)O)cc2)C(=O)c2ccccc21 | > 100 | 75.6 | > 100 | > 100 | > 100 | > 100 | 80 | > 100 | > 100 | 70.1 | 37.6 | > 100 | 59.6 | > 100 | > 100 | > 100 | > 100 | –
7 | O=c1ssc(=Nc2ccccc2)n1-c1ccccc1 | – | 66.4 | > 100 | 35 | 46.5 | – | 50.6 | > 100 | > 100 | 57.5 | – | 37.1 | 53.9 | > 100 | 50 | 38.9 | > 100 | > 100
8 | CC(C)(C)OC(=O)NC(Cc1ccccc1)OCc1ccccc1 (centres undefined) | 37.8 | > 100 | 43.7 | 36.1 | 37.8 | > 10 | – | 44.7 | 58.2 | 72.6 | 35.1 | 36.2 | 74.7 | 37.7 | > 10 | > 10 | 28.7 | 38.1
9 | CCCCn1c(N)c(-c2nc3ccccc3o2)sc1=S | 41 | > 100 | > 100 | 47.5 | 39.9 | 44.1 | – | 42.6 | 53.6 | 67.4 | > 100 | 74.4 | 37.7 | > 100 | 33 | > 100 | 31.9 | 69.1
10 | O=c1[nH]cc(COCCCO)c(=O)[nH]1 | > 100 | > 100 | – | > 100 | > 100 | > 100 | > 100 | > 100 | > 100 | > 100 | > 100 | > 100 | > 100 | > 100 | > 100 | > 100 | > 100 | –
11 | CO/C(=N\N=C\c1ccc(OC)c(OC)c1)c1ccncc1 | > 10 | > 10 | > 10 | > 10 | > 10 | > 10 | > 10 | > 10 | – | > 10 | – | > 10 | – | – | > 10 | > 10 | > 10 | > 10
12 | CCC(C=O)P1(=O)OC(C)(C)CN1C(C)(C)C (centres undefined) | > 100 | > 100 | > 100 | > 100 | > 100 | > 100 | > 100 | > 100 | > 100 | > 100 | – | > 100 | > 100 | > 100 | > 100 | > 100 | > 100 | –
13 | CCn1c2ccccc2c2ccc3c(c21)C(=O)C=CC3=O | – | 24.1 | 38.5 | 25.7 | 40 | 14.8 | – | 45.5 | 44.1 | > 100 | – | 40 | 44 | – | 31.7 | 27.7 | – | –
14 | C[N+](C)(C)CCc1ccccc1 | > 100 | > 100 | > 100 | > 100 | > 100 | > 100 | > 100 | > 100 | > 100 | > 100 | > 100 | > 100 | > 100 | > 100 | > 100 | > 100 | > 100 | –
